Tests used:
DOHH2 = assay: Mitochondrial membrane potential (JC-1); format: cell-based; conditions: DOHH2, 48 h read-out
Description: (§1) This assay is performed in 96 well tissue culture plates. Appropriate number of cells (adherent cells: 3-5*10^3, suspension cells: 8-10*10^3) are being seeded out in 80 μl complete medium. Adherent cells are incubated for 24 h for proper spreading out before addition of test compounds while suspension cells are immediately treated with test compounds after seeding out. The test compounds are added in 20 μal complete medium containing max 5% DMSO. […] The assay plates are then further incubated for 30 minutes and subsequently analyzed with a standard inverted fluorescence microscope by using the FITC and TRITC filters.
(§2) The scores A, B, C and D are explained at the end of the Table.

MRC5 [1] = assay: MTS proliferation assay; format: cell-based; conditions: MRC5, 72 h read-out
Description: (§3) The assay is performed in 96 well tissue culture plates. The cells (range: 1.5*10^3-10^4) are seeded out in 80 μl complete medium 24 h prior to compound treatment. The test compounds are added in 20 μl complete medium containing max 5% DMSO. The final compound concentrations in the assays are in the range of 0.001 μM-10 μM. The assay plates are incubated for 72 h at culture conditions. The MTS reagent is prepared according to the manufacturer's protocol (Promega G1111). 20 μl MTS reagent are added to each well, the assay plates are quickly spun and incubated for another 3 h at culture conditions. Subsequently, the plates are shortly shaked and absorption measured with a microplate-reader at 492 nm. The scores A, B, C and D are explained at the end of the Table.

Jily [2] = assay: MTS proliferation assay; format: cell-based; conditions: 72 h read-out
Description: as §3

MRC5 [3] = assay: Hoechst 33342 nuclear staining; format: cell-based; conditions: MRC5, 48 h read-out
Description: as §1, with “μl” for “μal”, “DMSO. The final compound concentrations in the assays are in the range of 0.001 μM-10 μM.” for “DMSO.”, “microscope.” for “microscope by using the FITC and TRITC filters.”
(§4) The readout allows the determination of the fraction of apoptotic nuclei as well as other morphological criteria specific for apoptosis as a function of the treatment. The scores A, B, C and D are explained at the end of the Table.

Jily [4] = assay: Hoechst 33342 nuclear staining; format: cell-based; conditions: 48 h read-out
Description: as §1, with “μl” for “μal”, “DMSO. The final compound concentrations in the assays are in the range of 0.001 μM-10 μM.” for “DMSO.”, “microscope.” for “microscope by using the FITC and TRITC filters.”
as §4

Jurkat [5] = assay: Mitochondrial membrane potential (JC-1); format: cell-based, human; conditions: 48 h read-out
Description: as §1, §2

PBL [6] = assay: Mitochondrial membrane potential (JC-1); format: cell-based, human; conditions: 48 h read-out
Description: as §1, §2

MCF7 = assay: Mitochondrial membrane potential (JC-1); format: cell-based, human; conditions: MCF7, 48 h read-out
Description: as §1, §2

HeLa [7] = assay: Mitochondrial membrane potential (JC-1); format: cell-based, human; conditions: 48 h read-out
Description: as §1, §2

Jurkat [8] = assay: Hoechst 33342 nuclear staining; format: cell-based, human; conditions: 48 h read-out
Description: as §1, with “μl” for “μal”, “DMSO. The final compound concentrations in the assays are in the range of 0.001 μM-10 μM.” for “DMSO.”, “microscope.” for “microscope by using the FITC and TRITC filters.”
as §4

PBL [9] = assay: Hoechst 33342 nuclear staining; format: cell-based, human; conditions: 48 h read-out
Description: as §1, with “μl” for “μal”, “DMSO. The final compound concentrations in the assays are in the range of 0.001 μM-10 μM.” for “DMSO.”, “microscope.” for “microscope by using the FITC and TRITC filters.”
as §4

HeLa [10] = assay: Hoechst 33342 nuclear staining; format: cell-based, human; conditions: 48 h read-out
Description: as §1, with “μl” for “μal”, “DMSO. The final compound concentrations in the assays are in the range of 0.001 μM-10 μM.” for “DMSO.”, “microscope.” for “microscope by using the FITC and TRITC filters.”
as §4

Jurkat [11] = assay: MTS proliferation assay; format: cell-based, human; conditions: 72 h read-out
Description: as §3

HeLa [12] = assay: MTS proliferation assay; format: cell-based, human; conditions: 72 h read-out
Description: as §3

HT1080 = assay: MTS proliferation assay; format: cell-based, human; conditions: HT1080, 72 h read-out
Description: as §3

HeLa [13] = assay: PI staining for cell cycle distribution; format: cell-based, human; conditions: 24 h read-out, read-out: PI staining for cell cycle distribution EC50 (G2M arrest), HeLa
Description: 1-2*10^5 cells are seeded into 24 well tissue culture plates and incubated for 24 h prior to compound addition. Compounds are added for 24 h in a final concentration of 3 μM or 10 μM. Adherent cells are harvested by trypsinization. The cell suspensions are fixed by adding 2 parts ice cold ethanol 100% while vortexing. Then the samples are stored for >2 h at −20° C. Subsequently the cells are washed with PBS once and resuspended in 250 μl PBS containing 50 μg/ml PI (Calbiochem #537059), then the samples are incubated at 37° C. for 30 minutes and subsequently analyzed on a FACSCalibur™ monitoring linear PI fluorescence activity on FL2. The readout allows the detection of a possible direct or indirect influence of the tested compounds on the cell cycle. All active test compounds induce an arrest of the cell population in the G2M phase. This effect has been quantified by running the test at different concentrations. In Table 4 EC50 values are tabulated.

HeLa [14] = assay: Colony Forming Units; format: cell-based, human; conditions: read-out after 6 days
Description: (§5) Appropriate numbers of cells (100-150 cells, dependent on the cell type) are being seeded out in 1 ml complete medium into 6-well plates and allowed to attach for 48 h. The compounds are added after 48 h in 500 μl solution. The concentrations are in the range of 0.001 μM-3 μM. Control plates receive the same volume of medium containing the appropriate amount of DMSO. The plates are incubated for 6 days at cell culture conditions and subsequently scored for growth of colonies (containing more than 30 cells) by using a microscope.

H460 = assay: Colony Forming Units; format: cell-based, human; conditions: H460, read-out after 6 days
Description: as §5

COc1ccc(Nc2cncc(-c3cccc(Nc4ccccn4)c3)c2)cc1 [Example 3, 5-(p-Methoxyphenylamino)-3-(m-[2-pyridylamino]phenyl)pyridine]
100 to 1000 nM: IC50 (MRC5 [1]; Homo sapiens) | EC50 (MRC5 [3]; Homo sapiens) | EC50 (MCF7; Homo sapiens) | EC50 (HeLa [7]; Homo sapiens) | EC50 (HeLa [10]; Homo sapiens) | IC50 (HeLa [12]; Homo sapiens)
10 to 100 nM: EC50 (DOHH2; Homo sapiens, DOHH-2) | IC50 (Jily [2]) | EC50 (Jily [4]) | EC50 (Jurkat [5]; Homo sapiens) | EC50 (Jurkat [8]; Homo sapiens) | IC50 (Jurkat [11]; Homo sapiens) | IC50 (HT1080; Homo sapiens, HT-1080)
> 1000 nM: EC50 (PBL [6]; Homo sapiens) | EC50 (PBL [9]; Homo sapiens)
161 to 165 °C: melting point

COc1ccc(Nc2cncc(-c3cccc(NC(=O)c4ccncc4)c3)c2)cc1 [Example 16]
100 to 1000 nM: EC50 (MCF7)
< 10 nM: EC50 (DOHH2) | IC50 (MRC5 [1]) | EC50 (MRC5 [3]) | EC50 (Jily [4]) | EC50 (Jurkat [5]) | EC50 (Jurkat [8]) | IC50 (HT1080)
> 1000 nM: EC50 (PBL [6]) | EC50 (PBL [9])
10 to 100 nM: EC50 (HeLa [13]) | EC50 (HeLa [7]) | EC50 (HeLa [10]) | IC50 (HeLa [12])

COc1ccc(Nc2cncc(-c3cccc(NS(=O)(=O)CCCCl)c3)c2)cc1 [Example 7]
> 1000 nM: EC50 (PBL [6]) | EC50 (MCF7) | EC50 (PBL [9])
10 to 100 nM: EC50 (DOHH2) | IC50 (Jily [2]) | EC50 (MRC5 [3]) | EC50 (Jily [4]) | EC50 (Jurkat [5]) | EC50 (Jurkat [8]) | EC50 (HeLa [10]) | IC50 (Jurkat [11])
100 to 1000 nM: EC50 (HeLa [13]) | IC50 (MRC5 [1]) | EC50 (HeLa [7]) | IC50 (HeLa [12]) | IC50 (HT1080)

COc1ccc(Nc2cncc(-c3cccc(NS(C)(=O)=O)c3)c2)cc1 [Example 1, 3-(m-Mesylaminophenyl)-5-(p-methoxyphenylamino)pyridine]
10 to 100 nM: IC50 (Jily [2]) | IC50 (Jurkat [11]; Homo sapiens)
> 1000 nM: EC50 (PBL [6]; Homo sapiens) | EC50 (MCF7; Homo sapiens) | EC50 (PBL [9]; Homo sapiens)
100 to 1000 nM: EC50 (HeLa [13]; Homo sapiens) | EC50 (DOHH2; Homo sapiens, DOHH-2) | IC50 (MRC5 [1]; Homo sapiens) | EC50 (MRC5 [3]; Homo sapiens) | EC50 (Jily [4]) | EC50 (Jurkat [5]; Homo sapiens) | EC50 (HeLa [7]; Homo sapiens) | EC50 (Jurkat [8]; Homo sapiens) | EC50 (HeLa [10]; Homo sapiens) | IC50 (HeLa [12]; Homo sapiens) | IC50 (HT1080; Homo sapiens, HT-1080)
240 °C: melting point

COc1ccc(Nc2cncc(-c3cccc(NC(=O)c4cccnc4Cl)c3)c2)cc1 [Example 11]
10 to 100 nM: EC50 (DOHH2) | IC50 (MRC5 [1]) | IC50 (Jily [2]) | EC50 (MRC5 [3]) | EC50 (Jily [4]) | EC50 (Jurkat [5]) | EC50 (HeLa [7]) | EC50 (Jurkat [8]) | EC50 (HeLa [10]) | IC50 (Jurkat [11]) | IC50 (HeLa [12]) | IC50 (HT1080)
> 1000 nM: EC50 (PBL [6]) | EC50 (MCF7) | EC50 (PBL [9])
< 10 nM: EC50 (HeLa [13])

COc1ccc(Nc2cncc(-c3cccc(NC(=O)c4ccccc4)c3)c2)cc1 [Example 2, 3-(m-Benzoylaminophenyl)-5-(p-methoxyphenylamino)pyridine]
10 to 100 nM: EC50 (DOHH2; Homo sapiens, DOHH-2) | IC50 (MRC5 [1]; Homo sapiens) | EC50 (Jily [4]) | EC50 (Jurkat [5]; Homo sapiens) | EC50 (HeLa [7]; Homo sapiens) | EC50 (Jurkat [8]; Homo sapiens) | EC50 (HeLa [10]; Homo sapiens) | IC50 (HeLa [12]; Homo sapiens) | IC50 (HT1080; Homo sapiens, HT-1080)
135 to 140 °C: melting point
< 10 nM: IC50 (Jily [2]) | IC50 (Jurkat [11]; Homo sapiens)
> 1000 nM: EC50 (MRC5 [3]; Homo sapiens) | EC50 (PBL [6]; Homo sapiens) | EC50 (MCF7; Homo sapiens) | EC50 (PBL [9]; Homo sapiens)
100 to 1000 nM: EC50 (HeLa [13]; Homo sapiens) | IC50 (HeLa [14]; Homo sapiens, 144 h) | IC50 (H460; Homo sapiens, NCI-H460, 144 h)

CCS(=O)(=O)Nc1cccc(-c2cncc(Nc3ccc(OC)cc3)c2)c1 [Example 4]
> 1000 nM: EC50 (PBL [6]) | EC50 (MCF7) | EC50 (PBL [9])
100 to 1000 nM: EC50 (HeLa [13]) | IC50 (MRC5 [1]) | EC50 (HeLa [7]) | EC50 (HeLa [10]) | IC50 (HeLa [12])
10 to 100 nM: IC50 (HeLa [14]) | IC50 (H460) | IC50 (Jily [2]) | EC50 (MRC5 [3]) | EC50 (Jily [4]) | EC50 (Jurkat [8]) | IC50 (Jurkat [11]) | IC50 (HT1080)
< 10 nM: EC50 (DOHH2) | EC50 (Jurkat [5])

From patent publication US8288421B2, “Phenylaminopyridines” (Basilea Pharmaceutica AG, priority 2004, dated 2012)
